From DBAASP
In brackets after ≈: the same amount, converted by molar mass. Each block holds one molecule with its values, some of them ahead of it.

Key:
Test in all cases: ≥ marks a high value that may be exact or a test limit, other limits are often not marked, values filed in µg/mL are converted to µM
[1] = system: Candida albicans ATCC 90028
[2] = system: Enterobacter cloacae NHTCC 53001
[3] = system: Escherichia coli ATCC 25922
[4] = system: Klebsiella pneumoniae KK3 9904
[5] = system: Pseudomonas aeruginosa ATCC 27853
[6] = system: Staphylococcus aureus NCTC 8325
[7] = system: Enterobacter cloacae 218R
[8] = system: Enterococcus faecalis ATCC 29212
[9] = system: Enterococcus faecalis W61950
[10] = system: Enterococcus faecalis f43559
[11] = system: Enterococcus faecium mic80
[12] = system: Enterococcus faecium t62764
[13] = system: Escherichia coli ESBL 63103
[14] = system: Escherichia coli ESBL 64771
[15] = system: Klebsiella pneumoniae ESBL 61962
[16] = system: Klebsiella pneumoniae ESBL 63575
[17] = system: Pseudomonas aeruginosa 198
[18] = system: Pseudomonas aeruginosa 213
[19] = system: Pseudomonas aeruginosa 9
[20] = system: Pseudomonas aeruginosa H1027
[21] = system: Pseudomonas aeruginosa H1030
[22] = system: Pseudomonas aeruginosa LES400
[23] = system: Pseudomonas aeruginosa PAO1 H103
[24] = system: Staphylococcus aureus ATCC 25923
[25] = system: Staphylococcus aureus C623
[26] = system: Stenotrophomonas maltophilia ATCC 13637
[27] = system: Bacillus cereus AS1.126
[28] = system: Bacillus cereus
[29] = system: Candida albicans CMCC 98001
[30] = system: Enterobacter cloacae CGMCC 1.58
[31] = system: Enterococcus faecalis CGMCC 1.595
[32] = system: Enterococcus faecium CGMCC 1.2334
[33] = system: Escherichia coli AS1.349
[34] = system: Escherichia coli ATCC 11775
[35] = system: Escherichia coli
[36] = system: Fusobacterium nucleatum CGMCC 1.2526
[37] = system: Klebsiella aerogenes CGMCC 1.876
[38] = system: Klebsiella pneumoniae subsp. pneumoniae CGMCC 1.176
[39] = system: Lactobacillus acidophilus CGMCC 1.1854
[40] = system: Lactococcus lactis AS1.1690
[41] = system: Lactococcus lactis
[42] = system: Pseudomonas aeruginosa CGMCC 1.860
[43] = system: Staphylococcus aureus AS1.72
[44] = system: Staphylococcus aureus ATCC 12600
[45] = system: Staphylococcus aureus
[46] = system: Streptococcus mutans CGMCC 1.2500
[47] = system: Streptococcus salivarius CGMCC 1.2498
[48] = system: Streptococcus sanguinis CGMCC 1.2497
[49] = system: Aeromonas salmonicida NCIMB 1102
[50] = system: Bacillus subtilis IAM 1026
[51] = system: Escherichia coli JCM 1649
[52] = system: Photobacterium damselae subsp. piscicida Sp 9587
[53] = system: Salmonella typhimurium
[54] = system: Shewanella putrefaciens IAM 1509
[55] = system: Staphylococcus aureus IAM 1011
[56] = system: Vibrio anguillarum NCIMB 829
[57] = system: Vibrio parahaemolyticus Vp+1

MIC [1]: ≥ 100 µM
MIC [2]: 6 µM (≈ 22.9 µg/mL)
MIC [3]: 3 µM (≈ 11.4 µg/mL)
MIC [4]: 12 µM (≈ 45.8 µg/mL)
MIC [5]: 6 µM (≈ 22.9 µg/mL)
MIC [6]: 25 µM (≈ 95.4 µg/mL)
Structure (SMILES): CC[C@H](C)[C@@H]1NC(=O)[C@H](CCCCN)NC(=O)[C@@H](NC(=O)[C@H](CCCCN)NC(=O)[C@H](C)NC(=O)[C@H](CCC(N)=O)NC(=O)[C@H](CC(=O)O)NC(=O)[C@H](CC(C)C)NC(=O)[C@H](CC(C)C)NC(=O)[C@H](CO)NC(=O)CNC(=O)CNC(=O)[C@@H](NC(=O)[C@H](CC(N)=O)NC(=O)[C@H](CCCCN)NC(=O)[C@H](Cc2ccccc2)NC(=O)[C@@H](NC(=O)[C@H](Cc2cnc[nH]2)NC(=O)[C@H](CCCCN)NC(=O)CNC(=O)[C@H](C)NC(=O)[C@@H](NC(=O)[C@H](CCCCN)NC(=O)[C@H](CC(C)C)NC(=O)[C@@H](NC(=O)CNC(=O)[C@H](CCCCN)NC(=O)[C@@H](NC(=O)[C@@H](NC(=O)[C@H](CO)NC(=O)[C@H](CCSC)NC(=O)[C@H](CC(C)C)NC(=O)CN)C(C)C)[C@@H](C)O)C(C)C)[C@@H](C)O)[C@@H](C)CC)C(C)C)CSSC[C@@H](C(=O)O)NC(=O)[C@H](CCC(N)=O)NC(=O)CNC(=O)[C@H](CO)NC1=O [GLMSVTKGVLKTAGKHIFKNVGGSLLDQAKCKISGQC]

MIC [7]: ≥ 186 µM
MIC [8]: > 186 µM
MIC [9]: ≥ 186 µM
MIC [10]: ≥ 186 µM
MIC [11]: ≥ 93.6 µM
MIC [12]: ≥ 93.6 µM
MIC [13]: ≥ 186 µM
MIC [14]: ≥ 93.6 µM
MIC [15]: ≥ 186 µM
MIC [16]: ≥ 186 µM
MIC [17]: ≥ 186 µM
MIC [18]: ≥ 186 µM
MIC [19]: ≥ 186 µM
MIC [20]: ≥ 93.6 µM
MIC [21]: ≥ 186 µM
MIC [22]: ≥ 186 µM
MIC [23]: ≥ 186 µM
MIC [24]: 186 µM (≈ 211 µg/mL)
MIC [25]: ≥ 186 µM
MIC [26]: ≥ 46.8 µM
Structure (SMILES): CC(C)[C@H](NC(=O)[C@H](CCCN=C(N)N)NC(=O)[C@H](CCCCN)NC(=O)[C@@H](NC(=O)[C@H](Cc1ccccc1)NC(=O)[C@H](CCCCN)NC(=O)[C@H](Cc1c[nH]c2ccccc12)NC(=O)[C@@H](NC(=O)[C@H](C)N)C(C)C)C(C)C)C(=O)O [AVWKFVKRV]

MIC [27]: ≥ 62.5 µM
MIC [28]: ≥ 41 µM
MIC [29]: ≥ 50 µM
MIC [30]: ≥ 250 µM
MIC [31]: ≥ 125 µM
MIC [32]: ≥ 125 µM
MIC [33]: ≥ 125 µM
MIC [34]: ≥ 100 µM
MIC [35]: > 100 µM
MIC [36]: ≥ 75 µM
MIC [37]: ≥ 250 µM
MIC [38]: ≥ 175 µM
MIC [39]: ≥ 37.5 µM
MIC [40]: ≥ 62.5 µM
MIC [41]: ≥ 41 µM
MIC [42]: ≥ 125 µM
MIC [43]: ≥ 62.5 µM
MIC [44]: ≥ 100 µM
MIC [45]: 41 µM (≈ 50 µg/mL)
MIC [46]: ≥ 50 µM
MIC [47]: ≥ 75 µM
MIC [48]: ≥ 37.5 µM
Structure (SMILES): CC[C@H](C)[C@H](N)C(=O)N[C@@H](CC(C)C)C(=O)N1CCC[C@H]1C(=O)N[C@H](C(=O)N[C@@H](CC(C)C)C(=O)N[C@@H](CO)C(=O)N[C@@H](CC(C)C)C(=O)N[C@H](C(=O)NCC(=O)NCC(=O)N[C@@H](CC(C)C)C(=O)N[C@@H](CC(C)C)C(N)=O)[C@@H](C)CC)[C@@H](C)CC [ILPILSLIGGLL]

MIC [49]: 17.9 µM (≈ 50 µg/mL)
MIC [50]: 8.96 µM (≈ 25 µg/mL)
MIC [51]: 17.9 µM (≈ 50 µg/mL)
MIC [52]: 4.48 µM (≈ 12.5 µg/mL)
MIC [53]: 17.9 µM (≈ 50 µg/mL)
MIC [54]: 4.48 µM (≈ 12.5 µg/mL)
MIC [55]: 2.24 µM (≈ 6.25 µg/mL)
MIC [56]: 17.9 µM (≈ 50 µg/mL)
Structure (SMILES): CC[C@H](C)[C@H](NC(=O)[C@H](CC(N)=O)NC(=O)[C@H](CO)NC(=O)[C@H](CC(C)C)NC(=O)[C@H](C)NC(=O)CNC(=O)[C@H](Cc1ccccc1)NC(=O)[C@H](CC(C)C)NC(=O)[C@H](CO)NC(=O)[C@@H]1CCCN1C(=O)[C@@H](NC(=O)[C@H](CC(C)C)NC(=O)[C@H](CCCCN)NC(=O)[C@@H](NC(=O)[C@H](CC(C)C)NC(=O)[C@H](Cc1ccccc1)NC(=O)CNC(=O)[C@H](Cc1ccccc1)NC(=O)[C@@H](N)CC(C)C)[C@@H](C)CC)[C@@H](C)CC)C(=O)NCC(=O)N[C@@H](CCCN=C(N)N)C(=O)N[C@@H](CC(N)=O)C(=O)N[C@@H](CCCN=C(N)N)C(=O)N[C@@H](CC(N)=O)C(=O)N[C@@H](CCC(N)=O)C(=O)O [LFGFLIKLIPSLFGALSNIGRNRNQ]
MIC [57]: 8.96 µM (≈ 25 µg/mL)
